For 19 molecules, minimal effective concentration results are on record in patent publication US20240270695A1, “COMPOUNDS, COMPOSITIONS AND METHODS OF TREATING DISORDERS” (Chengdu Anticancer Bioscience LTD, priority 2021, published 2024).

In assay [1] the test system is RPE-Neo or RPE-MYC or RPE-MYC expressing an EGFP-Histone 2B fusion protein. The experiment in a line: MTT assays of cellular proliferation. Type of assay: cell-based. The following applies: Homo sapiens, min. effective conc., read-out: Proliferative arrest (<50%). For orientation: Tetrazolium assays rely on reduction of a dye to a coloured formazan, in cell work by metabolically active cells.

Assay [2] shares this test system. The experiment in a line: Phenotypic screening assay (arrest in mitosis, change in DNA content, cell death; GE IN-Cell Analyzer 2000). The class given is cell-based. The following applies: Homo sapiens, compounds 20 nM to 20 μM, 24, 48 or 72 hours.
The mark [3] stands for this setting: read-out: Min. Effective conc. for Polyploidy (≥10%).
[4] abbreviates: min. effective conc., read-out: Cell Death (>30%).
Where [5] appears, read: min. effective conc., read-out: Mitotic Arrest (≥10%).

With `COC(=O)C1=C(O)c2ccccc2N(Cc2cccc(F)c2)C(=O)C1` [Example 8, Methyl 1-(3-fluorobenzyl)-5-hydroxy-2-oxo-2,3-dihydro-1H-benzo[b]azepine-4-carboxylate], the minimal effective concentration in assay [1] lay in the range of 30 to 1000 µM.
Still for that read-out and setting: the figure for `COC(=O)C1=C(O)c2ccccc2N(Cc2cc(OC)cc(OC)c2)C(=O)C1` [Example 11, Methyl 1-(3,5-dimethoxybenzyl)-5-hydroxy-2-oxo-2,3-dihydro-1H-benzo[b]azepine-4-carboxylate] is 30 to 1000 µM.
`COC(=O)C1=C(O)c2ccccc2N(Cc2ccc(C#N)cc2)C(=O)C1` [Example 26, Methyl 1-(4-cyanobenzyl)-5-hydroxy-2-oxo-2,3-dihydro-1H-benzo[b]azepine-4-carboxylate]: the minimal effective concentration in assay [1] lay in the range of 30 to 1000 µM.
On the same count and under the same terms, the figure for `COC(=O)C1=C(O)c2ccccc2N(Cc2ccc(OC(F)(F)F)cc2)C(=O)C1` [Example 32, Methyl 5-hydroxy-2-oxo-1-(4-(trifluoromethoxy)benzyl)-2,3-dihydro-1H-benzo[b]azepine-4-carboxylate] is 30 to 1000 µM.
For `COC(=O)C1=C(O)c2ccccc2N(Cc2cccc3ccccc23)C(=O)C1` [Example 38, Methyl 5-hydroxy-1-(naphthalen-1-ylmethyl)-2-oxo-2,3-dihydro-1H-benzo[b]azepine-4-carboxylate], the minimal effective concentration in assay [1], in assay [2] (setting [3]), in assay [2] (setting [4]) and in assay [2] (setting [5]) was 30 to 1000 µM in each case.
Consider `COC(=O)Cc1ccc(CN2C(=O)CC(C(=O)OC)=C(O)c3ccccc32)cc1` [Example 42, Methyl 5-hydroxy-1-(4-(2-methoxy-2-oxoethyl)benzyl)-2-oxo-2,3-dihydro-1H-benzo[b]azepine-4-carboxylate], for which the minimal effective concentration in assay [1] was in the range of 30 to 1000 µM.
Regarding `CNC(=O)C1=C(O)c2ccccc2N(CC2CC2)C(=O)C1` [Example 70, 1-(cyclopropylmethyl)-5-hydroxy-N-methyl-2-oxo-2,3-dihydro-1H-benzo[b]azepine-4-carboxamide], the minimal effective concentration in assay [1], in assay [2] (setting [3]), in assay [2] (setting [4]) and in assay [2] (setting [5]) was 30 to 1000 µM throughout.
As to `CNC(=O)C1=C(O)c2ccccc2N(Cc2ccsc2)C(=O)C1` [Example 71, 5-hydroxy-N-methyl-2-oxo-1-(thiophen-3-ylmethyl)-2,3-dihydro-1H-benzo[b]azepine-4-carboxamide], the minimal effective concentration in assay [1], in assay [2] (setting [3]), in assay [2] (setting [4]) and in assay [2] (setting [5]) was 30 to 1000 µM throughout.
`CNC(=O)C1=C(O)c2ccccc2N(Cc2ccccc2)C(=O)C1` [Example 72, 1-benzyl-5-hydroxy-N-methyl-2-oxo-2,3-dihydro-1H-benzo[b]azepine-4-carboxamide]: the minimal effective concentration in assay [1], in assay [2] (setting [3]) and in assay [2] (setting [5]) was 30 to 1000 µM in each case.
As to `CNC(=O)C1=C(O)c2ccccc2N(Cc2ccncc2)C(=O)C1` [Example 74, 5-hydroxy-N-methyl-2-oxo-1-(pyridin-4-ylmethyl)-2,3-dihydro-1H-benzo[b]azepine-4-carboxamide], the minimal effective concentration in assay [1], in assay [2] (setting [3]), in assay [2] (setting [4]) and in assay [2] (setting [5]) was 30 to 1000 µM throughout.
`CNC(=O)C1=C(O)c2ccccc2N(Cc2cccnc2)C(=O)C1` [Example 75, 5-hydroxy-N-methyl-2-oxo-1-(pyridin-3-ylmethyl)-2,3-dihydro-1H-benzo[b]azepine-4-carboxamide]: the minimal effective concentration in assay [1], in assay [2] (setting [3]), in assay [2] (setting [4]) and in assay [2] (setting [5]) was 30 to 1000 µM each time.
On to `CNC(=O)C1=C(O)c2ccccc2N(Cc2ccc(F)cc2)C(=O)C1` [Example 76, 1-(4-fluorobenzyl)-5-hydroxy-N-methyl-2-oxo-2,3-dihydro-1H-benzo[b]azepine-4-carboxamide], for which the minimal effective concentration in assay [1], in assay [2] (setting [3]), in assay [2] (setting [4]) and in assay [2] (setting [5]) was 1 to 10 µM throughout.
As for `CNC(=O)C1=C(O)c2ccccc2N(Cc2cccc(F)c2)C(=O)C1` [Example 77, 1-(3-fluorobenzyl)-5-hydroxy-N-methyl-2-oxo-2,3-dihydro-1H-benzo[b]azepine-4-carboxamide], the minimal effective concentration in assay [1], in assay [2] (setting [3]), in assay [2] (setting [4]) and in assay [2] (setting [5]) was 30 to 1000 µM in each case.
For `CNC(=O)C1=C(O)c2ccccc2N(Cc2ccccc2F)C(=O)C1` [Example 78, 1-(2-fluorobenzyl)-5-hydroxy-N-methyl-2-oxo-2,3-dihydro-1H-benzo[b]azepine-4-carboxamide], the minimal effective concentration in assay [1], in assay [2] (setting [3]), in assay [2] (setting [4]) and in assay [2] (setting [5]) was 10 to 30 µM throughout.
Consider `CNC(=O)C1=C(O)c2ccccc2N(Cc2ccc(C)cc2)C(=O)C1` [Example 79, 5-hydroxy-N-methyl-1-(4-methylbenzyl)-2-oxo-2,3-dihydro-1H-benzo[b]azepine-4-carboxamide], for which the minimal effective concentration in assay [1], in assay [2] (setting [3]), in assay [2] (setting [4]) and in assay [2] (setting [5]) was 1 to 10 µM throughout.
Take `CNC(=O)C1=C(O)c2ccccc2N(Cc2cccc(C)c2)C(=O)C1` [Example 80, 5-hydroxy-N-methyl-1-(3-methylbenzyl)-2-oxo-2,3-dihydro-1H-benzo[b]azepine-4-carboxamide]: the minimal effective concentration in assay [1], in assay [2] (setting [3]), in assay [2] (setting [4]) and in assay [2] (setting [5]) was 1 to 10 µM in each case.
In the case of `CNC(=O)C1=C(O)c2ccccc2N(Cc2ccccc2C)C(=O)C1` [Example 81, 5-hydroxy-N-methyl-1-(2-methylbenzyl)-2-oxo-2,3-dihydro-1H-benzo[b]azepine-4-carboxamide], the minimal effective concentration in assay [1], in assay [2] (setting [3]), in assay [2] (setting [4]) and in assay [2] (setting [5]) was 30 to 1000 µM in each case.
Turning to `CC(c1ccc(F)cc1)N1C(=O)CCC(=O)c2ccccc21` (stereo not drawn) [Example 82, 1-(1-(4-fluorophenyl)ethyl)-3,4-dihydro-1H-benzo[b]azepine-2,5-dione], the minimal effective concentration in assay [1], in assay [2] (setting [3]), in assay [2] (setting [4]) and in assay [2] (setting [5]) was 30 to 1000 µM in each case.
On to `CNC(=O)C1=C(O)c2ccccc2N(Cc2ccc(Cl)cc2)C(=O)C1` [Example 83, 1-(4-chlorobenzyl)-5-hydroxy-N-methyl-2-oxo-2,3-dihydro-1H-benzo[b]azepine-4-carboxamide], for which the minimal effective concentration in assay [1], in assay [2] (setting [3]), in assay [2] (setting [4]) and in assay [2] (setting [5]) was 10 to 30 µM throughout.
